21 molecules from patent US20240336642A1 (The General Hospital Corporation, priority 2021, published 2024) can be followed below.

One series has as its target h12/15-LOX (Homo sapiens (Human), UniProt P16050). The experiment in a line: 12/15-LOX enzyme inhibition IC50 assay (Examples 1 and 2). The series is classed as biochemical. The note with it: for Emax: read-out: Max % inhibition. The protocol: Enzyme was then added to the cuvettes. […] The % inhibition for each test compound concentration were calculated as follows: […]

Series [1] in a line: Metabolic stability of exemplified compounds (Example 4). The format is in vitro ADME.
Series [2] is described as follows: Aqueous solubility of exemplified compounds (Example 3). The format is physicochemical. As to conditions: aqueous solubility.

Chain of h12/15-LOX (P16050 whole entry): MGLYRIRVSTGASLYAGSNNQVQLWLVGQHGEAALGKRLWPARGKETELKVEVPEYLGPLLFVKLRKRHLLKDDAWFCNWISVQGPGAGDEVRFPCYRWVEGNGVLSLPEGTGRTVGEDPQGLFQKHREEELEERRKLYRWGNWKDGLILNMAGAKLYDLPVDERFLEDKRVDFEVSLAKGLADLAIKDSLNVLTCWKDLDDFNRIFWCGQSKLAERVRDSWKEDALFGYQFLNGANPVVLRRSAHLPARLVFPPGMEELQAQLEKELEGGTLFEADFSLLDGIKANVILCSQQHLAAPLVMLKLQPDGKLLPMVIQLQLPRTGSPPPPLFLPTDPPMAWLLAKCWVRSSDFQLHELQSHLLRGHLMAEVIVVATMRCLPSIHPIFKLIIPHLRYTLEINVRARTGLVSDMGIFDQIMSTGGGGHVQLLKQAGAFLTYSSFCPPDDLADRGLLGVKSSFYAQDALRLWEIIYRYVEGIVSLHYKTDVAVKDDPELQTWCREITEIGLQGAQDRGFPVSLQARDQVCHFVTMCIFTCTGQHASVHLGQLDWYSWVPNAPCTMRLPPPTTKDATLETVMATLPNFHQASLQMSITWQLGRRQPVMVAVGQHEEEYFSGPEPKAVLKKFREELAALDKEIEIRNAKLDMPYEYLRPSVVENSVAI

What is called IC50 is the concentration at which inhibition is half-maximal. A word on the microsomal CLint: it is a measure of how fast metabolising enzymes remove a compound, apart from limits set by blood flow. A high value points to rapid turnover. On h12/15-LOX, `N#Cc1nc(-c2cc(Cl)cc(Cl)c2Cl)oc1NCCCO` [Compound 16, 5-((3-Hydroxypropyl)amino)-2-(2,3,5-trichlorophenyl)oxazole-4-carbonitrile] returned an IC50 of 4.3 µM. Also, the Emax on h12/15-LOX (h12/15-LOX) was determined as 100%. In addition, the results for the “Extr (EH)” value in series [1] (Human liver microsomes), in series [1] (Mouse liver microsomes) and in series [1] (Rat liver microsomes) were “* (“*” <50%)”, “** (“**” 50-100%)” and “* (“*” <50%)”, respectively. Further, the microsomal CLint was less than 20 µL/min/mg in series [1] (Human liver microsomes), 100 to 200 µL/min/mg in series [1] (Mouse liver microsomes) and 20 to 100 µL/min/mg in series [1] (Rat liver microsomes). Further, the Sol result in series [2] is on record as “+++ (“+++” 20-50 μM)”.

In turn, `N#Cc1nc(-c2cc(Cl)cc(Cl)c2Cl)oc1NCCCCO` [Compound 17, 5-((4-Hydroxybutyl)amino)-2-(2,3,5-trichlorophenyl)oxazole-4-carbonitrile] showed an IC50 on h12/15-LOX of 1.9 µM. Besides, the Emax on h12/15-LOX (h12/15-LOX) was determined as 100%. Moreover, the “Extr (EH)” value in series [1] (Human liver microsomes), in series [1] (Mouse liver microsomes) and in series [1] (Rat liver microsomes) was “* (“*” <50%)” throughout. Besides, the microsomal CLint in series [1] (Human liver microsomes), in series [1] (Mouse liver microsomes) and in series [1] (Rat liver microsomes) was less than 20 µL/min/mg each time. Also, the Sol entry in series [2] is given as “++ (“++” 10-20 μM)”.

In turn, `N#Cc1nc(-c2cc(Cl)cc(Cl)c2Cl)oc1NCCCCCO` [Compound 22, 5-((5-Hydroxypentyl)amino)-2-(2,3,5-trichlorophenyl)oxazole-4-carbonitrile] gave an IC50 at h12/15-LOX of 0.51 µM. Further, the Emax at h12/15-LOX (h12/15-LOX) came out at 82%. For the same molecule, the “Extr (EH)” value in series [1] (Human liver microsomes) is given as “** (“**” 50-100%)”; in series [1] (Mouse liver microsomes), “* (“*” <50%)”; in series [1] (Rat liver microsomes), “* (“*” <50%)”. Further, the intrinsic clearance (microsomal CLint) is 20 to 100 µL/min/mg in series [1] (Human liver microsomes), less than 20 µL/min/mg in series [1] (Mouse liver microsomes) and 20 to 100 µL/min/mg in series [1] (Rat liver microsomes). In series [2], the Sol entry is “+ (“+” < 10 μM)”.

At h12/15-LOX, `N#Cc1nc(-c2cc(Cl)cc(Cl)c2Cl)oc1NCCOCCO` [Compound 28, 5-((2-(2-Hydroxyethoxy)ethyl)amino)-2-(2,3,5-trichlorophenyl)oxazole-4-carbonitrile] gave an IC50 of 1.5 µM. The Emax at h12/15-LOX (h12/15-LOX) stood at 87%. Moreover, the “Extr (EH)” value in series [1] (Human liver microsomes) is on record as “** (“**” 50-100%)”; in series [1] (Mouse liver microsomes), “* (“*” <50%)”; in series [1] (Rat liver microsomes) it was “* (“*” <50%)”. Further, the figures for the microsomal CLint in series [1] (Human liver microsomes), in series [1] (Mouse liver microsomes) and in series [1] (Rat liver microsomes) were 20 to 100 µL/min/mg, 20 to 100 µL/min/mg and less than 20 µL/min/mg, respectively. The Sol result in series [2] was “+++ (“+++” 20-50 μM)”.

On to `COCCNc1oc(-c2cc(Cl)cc(Cl)c2Cl)nc1C#N` [Compound 39, 5-((2-Methoxyethyl)amino)-2-(2,3,5-trichlorophenyl)oxazole-4-carbonitrile], for which, at h12/15-LOX, the IC50 came to 0.37 µM. Also, the Emax on h12/15-LOX (h12/15-LOX) turned out to be 100%. In addition, the “Extr (EH)” value in series [1] (Human liver microsomes), in series [1] (Mouse liver microsomes) and in series [1] (Rat liver microsomes) was “** (“**” 50-100%)” throughout. In addition, the values for the intrinsic metabolic clearance (microsomal CLint) in series [1] (Human liver microsomes), in series [1] (Mouse liver microsomes) and in series [1] (Rat liver microsomes) were 20 to 100 µL/min/mg, 100 to 200 µL/min/mg and 20 to 100 µL/min/mg, respectively. For the same molecule, in series [2], the Sol entry was “+ (“+” < 10 μM)”.

`N#Cc1nc(-c2cc(Cl)cc(Cl)c2Cl)oc1NCC#CCOCc1ccccc1` [Compound 43, 5-((4-(Benzyloxy)but-2-yn-1-yl)amino)-2-(2,3,5-trichlorophenyl)oxazole-4-carbonitrile] displayed a half-inhibitory concentration (IC50) at h12/15-LOX of 0.23 µM. Besides, at h12/15-LOX (h12/15-LOX), the Emax was determined as 93%. Also, the “Extr (EH)” value in series [1] (Human liver microsomes), in series [1] (Mouse liver microsomes) and in series [1] (Rat liver microsomes) was “** (“**” 50-100%)” throughout. For the same molecule, the microsomal CLint in series [1] (Human liver microsomes) was 100 to 200 µL/min/mg; in series [1] (Mouse liver microsomes), 20 to 100 µL/min/mg; in series [1] (Rat liver microsomes) it was 20 to 100 µL/min/mg. Moreover, in series [2], the Sol result is “+ (“+” < 10 μM)”.

The molecule `COC/C=C/CNc1oc(-c2cc(Cl)cc(Cl)c2Cl)nc1C#N` [Compound 45, (E)-5-((4-Methoxybut-2-en-1-yl)amino)-2-(2,3,5-trichlorophenyl)oxazole-4-carbonitrile] yielded an IC50 on h12/15-LOX of 0.19 µM. At h12/15-LOX (h12/15-LOX), the Emax was found to be 98%. In addition, the “Extr (EH)” value in series [1] (Human liver microsomes), in series [1] (Mouse liver microsomes) and in series [1] (Rat liver microsomes) was “** (“**” 50-100%)” each time. The figures for the microsomal CLint in series [1] (Human liver microsomes), in series [1] (Mouse liver microsomes) and in series [1] (Rat liver microsomes) were 20 to 100 µL/min/mg, 100 to 200 µL/min/mg and 20 to 100 µL/min/mg, respectively. In series [2], the Sol entry was “+ (“+” < 10 μM)”.

`COCC/C=C/CNc1oc(-c2cc(Cl)cc(Cl)c2Cl)nc1C#N` [Compound 46, (E)-5-((5-Methoxypent-2-en-1-yl)amino)-2-(2,3,5-trichlorophenyl)oxazole-4-carbonitrile] gave a half-maximal inhibitory concentration (IC50) at h12/15-LOX of 0.21 µM. For the same molecule, the Emax on h12/15-LOX (h12/15-LOX) stood at 95%. Further, the “Extr (EH)” value in series [1] (Human liver microsomes), in series [1] (Mouse liver microsomes) and in series [1] (Rat liver microsomes) was “** (“**” 50-100%)” in each case. For the same molecule, the results for the microsomal CLint in series [1] (Human liver microsomes), in series [1] (Mouse liver microsomes) and in series [1] (Rat liver microsomes) were 20 to 100 µL/min/mg, 100 to 200 µL/min/mg and 20 to 100 µL/min/mg, respectively. Also, the Sol entry in series [2] is recorded as “+ (“+” < 10 μM)”.

`N#Cc1nc(-c2cc(Cl)cc(Cl)c2Cl)oc1NC/C=C/COCc1ccccc1` [Compound 47, (E)-5-((4-(Benzyloxy)but-2-en-1-yl)amino)-2-(2,3,5-trichlorophenyl)oxazole-4-carbonitrile] showed an IC50 at h12/15-LOX of 0.23 µM. Moreover, on h12/15-LOX (h12/15-LOX), the Emax was 98%. Further, the “Extr (EH)” value in series [1] (Human liver microsomes), in series [1] (Mouse liver microsomes) and in series [1] (Rat liver microsomes) was “** (“**” 50-100%)” throughout. Besides, the microsomal CLint in series [1] (Human liver microsomes), in series [1] (Mouse liver microsomes) and in series [1] (Rat liver microsomes) was 100 to 200 µL/min/mg each time. The Sol entry in series [2] was “+ (“+” < 10 μM)”.

For `COCCOCCCCNc1oc(-c2cc(Cl)cc(Cl)c2Cl)nc1C#N` [Compound 48, 5-((4-(2-Methoxyethoxy)butyl)amino)-2-(2,3,5-trichlorophenyl)oxazole-4-carbonitrile], the IC50 against h12/15-LOX amounted to 0.62 µM. Besides, the Max % inhibition at h12/15-LOX (h12/15-LOX) was found to be 100%. For the same molecule, the CLint result in series [1] (Human liver microsomes) is reported as “++ (“++” 20-100 μL/min/mg)”; in series [1] (Mouse liver microsomes), “+++ (“+++” 100-200 μL/min/mg)”; in series [1] (Rat liver microsomes), “++ (“++” 20-100 μL/min/mg)”. Further, the “Extr (EH)” value in series [1] (Human liver microsomes), in series [1] (Mouse liver microsomes) and in series [1] (Rat liver microsomes) was “** (“**” 50-100%)” each time. In addition, in series [2], the Sol result is “+ (“+” < 10 μM)”.

As to `N#Cc1nc(-c2cc(Cl)cc(Cl)c2Cl)oc1NCCOCCNCCF` [Compound 93], the Emax at h12/15-LOX (h12/15-LOX) worked out at 98%.

At h12/15-LOX, `N#Cc1nc(-c2cc(Cl)cc(Cl)c2Cl)oc1NCCOCCNCC(F)(F)F` [Compound 94, 2-(2,3,5-Trichlorophenyl)-5-((2-(2-((2,2,2-trifluoroethyl)amino)ethoxy)ethyl)amino)oxazole-4-carbonitrile] displayed an IC50 of 0.3 µM. The Emax at h12/15-LOX (h12/15-LOX) amounted to 77%.

For the molecule `CN(CCOCCNc1oc(-c2cc(Cl)cc(Cl)c2Cl)nc1C#N)c1ccccc1` [Compound 95, 5-((2-(2-(Methyl(phenyl)amino)ethoxy)ethyl)amino)-2-(2,3,5-trichlorophenyl)oxazole-4-carbonitrile], it took 0.26 µM to reach half-maximal inhibition at h12/15-LOX (IC50). At h12/15-LOX (h12/15-LOX), the Emax was determined as 83%.

Turning to `CN(CCF)CCOCCNc1oc(-c2cc(Cl)cc(Cl)c2Cl)nc1C#N` [Compound 96, 5-((2-(2-((2-Fluoroethyl)(methyl)amino)ethoxy)ethyl)amino)-2-(2,3,5-trichlorophenyl)oxazole-4-carbonitrile], the half-inhibitory concentration (IC50) against h12/15-LOX was 4.4 µM. In addition, the Emax at h12/15-LOX (h12/15-LOX) stood at 93%.

In turn, `N#Cc1nc(-c2cc(Cl)cc(Cl)c2Cl)oc1NCCOCCOc1ccncc1` [Compound 97, 5-((2-(2-(Pyridin-4-yloxy)ethoxy)ethyl)amino)-2-(2,3,5-trichlorophenyl)oxazole-4-carbonitrile] showed an IC50 on h12/15-LOX of 0.11 µM. Further, on h12/15-LOX (h12/15-LOX), the Emax was 68%.

In the case of `N#Cc1nc(-c2cc(Cl)cc(Cl)c2Cl)oc1NCCOCCN1CCC(F)(F)CC1` [Compound 98, 5-((2-(2-(4,4-Difluoropiperidin-1-yl)ethoxy)ethyl)amino)-2-(2,3,5-trichlorophenyl)oxazole-4-carbonitrile], on h12/15-LOX, inhibition was half-maximal at 3.1 µM (IC50). At h12/15-LOX (h12/15-LOX), the Emax is 79%.

The molecule `COc1cnccc1OCCOCCNc1oc(-c2cc(Cl)cc(Cl)c2Cl)nc1C#N` [Compound 99, 5-((2-(2-((3-Methoxypyridin-4-yl)oxy)ethoxy)ethyl)amino)-2-(2,3,5-trichlorophenyl)oxazole-4-carbonitrile] showed an IC50 against h12/15-LOX of 1.7 µM. Besides, the Emax at h12/15-LOX (h12/15-LOX) stood at 66%.

As for `N#Cc1nc(-c2cc(Cl)cc(Cl)c2Cl)oc1NCCOCCOCCOc1ccncc1` [Compound 100, 5-((2-(2-(2-(Pyridin-4-yloxy)ethoxy)ethoxy)ethyl)amino)-2-(2,3,5-trichlorophenyl)oxazole-4-carbonitrile], the IC50 at h12/15-LOX is greater than 20 µM.

`COc1cc(OCCOCCNc2oc(-c3cc(Cl)cc(Cl)c3Cl)nc2C#N)ccn1` [Compound 101, 5-((2-(2-((2-Methoxypyridin-4-yl)oxy)ethoxy)ethyl)amino)-2-(2,3,5-trichlorophenyl)oxazole-4-carbonitrile] returned a 50% inhibitory concentration (IC50) at h12/15-LOX of 0.072 µM. At h12/15-LOX (h12/15-LOX), the Emax stood at 62%.

On h12/15-LOX, `N#Cc1nc(-c2cc(Cl)cc(Cl)c2Cl)oc1NCCOCCOc1ccnc(F)c1` [Compound 102, 5-((2-(2-((2-Fluoropyridin-4-yl)oxy)ethoxy)ethyl)amino)-2-(2,3,5-trichlorophenyl)oxazole-4-carbonitrile] registered a half-maximal inhibitory concentration (IC50) of 0.11 µM. Moreover, at h12/15-LOX (h12/15-LOX), the Emax was found to be 86%.

Consider `N#Cc1nc(-c2cc(Cl)cc(Cl)c2Cl)oc1NCCOCCOc1ccnnc1` [Compound 103, 5-((2-(2-(Pyridazin-4-yloxy)ethoxy)ethyl)amino)-2-(2,3,5-trichlorophenyl)oxazole-4-carbonitrile], for which the IC50 against h12/15-LOX is 4.6 µM. Moreover, at h12/15-LOX (h12/15-LOX), the Emax was 73%.
